Assay results reported in patent publication US20080206770A1, “SCREENING METHODS USED TO IDENTIFY COMPOUNDS THAT MODULATE SKIN STROMAL CELLS (FIBROBLASTS) ABILITY TO MODIFY FUNCTION OF EXTRACELLULAR MATRIX” (priority 2007, published 2008).

Test system: dermal fibroblasts isolated from 17 individuals
Assay: Real time RT-PCR of ECM components, nuclear hormone receptors and coregulators in fibroblasts from 17 individuals
Format: cell-based, human
Details: 24 hours
Description: Total RNA was extracted from cells using RNA aqueous kit (Ambion, USA). First-strand cDNAs were synthesized with Superscript III reverse transcriptase (Invitrogen, USA) and 1 μg of total RNA using oligo d(T) priming in a final reaction volume of 40 μL.
Levels of specific mRNAs were measured by real-time RT-PCR using Platinum SYBR Green qPCR SuperMix UDG (Invitrogen) according the protocol on the LightCycler 2.0 (Roche, US). The cycling program steps were: for one cycle 50° C. 2 min, for one cycle 95° C. 2 min and for 45 cycles: 95° C. 10 s, 60° C. 10 s, 72° C. 10 s. All samples were run in triplicates. Results were analyzed with the comparative Ct method (from Applied Biosystems manual; Livak and Schmittgen, 2001). Every sample was normalized for the housekeeping gene GAPDH. Transcript levels in the atRA and TGFb1 treated samples were compared to control samples.

[1] = fibroblasts from 17 individuals, 10 ng/ml

TGFbeta1: well-characterized profibrotic factor
expression of metalloproteinases and PPARγ (10 ng/ml, 17 individuals): suppresses significantly | gene expression of majority of collagens (10 ng/ml, 17 individuals): strongly upregulated | individual variation of collagen gene expression between individual fibroblasts (10 ng/ml, 17 individuals): up to 13 fold | variation of expression of PPARγ between different individuals (10 ng/ml, 17 individuals): up to 17 fold | effect on gene expression of different ECM genes compared with atRA (TGFβ1 10 ng/ml vs atRA 1 μM): noticeably stronger | CBP expression in TGFbeta1 treatment compared to control, from-to between individuals [1]: (from −2.24 to 2.29) fold | COL1A1 expression in TGFbeta1 treatment compared to control, from-to between individuals [1]: (from −1.11 to 7.75) fold | COL1A2 expression in TGFbeta1 treatment compared to control, from-to between individuals [1]: (from 1.14 to 9.58) fold | COL3A1 expression in TGFbeta1 treatment compared to control, from-to between individuals [1]: (from −1.75 to 6.82) fold | COL4A1 expression in TGFbeta1 treatment compared to control, from-to between individuals [1]: (from 2.52 to 16.22) fold | COL5A1 expression in TGFbeta1 treatment compared to control, from-to between individuals [1]: (from −1.61 to 6.08) fold | COL5A2 expression in TGFbeta1 treatment compared to control, from-to between individuals [1]: (from 1.3 to 3.42) fold | CTGF expression in TGFbeta1 treatment compared to control, from-to between individuals [1]: (from −1.8 to 11.00) fold | ELN expression in TGFbeta1 treatment compared to control, from-to between individuals [1]: (from −3.33 to 10.63) fold | FN 1 transcr.v.1 expression in TGFbeta1 treatment compared to control, from-to between individuals [1]: (from −3.23 to 3.75) fold | Individual variation of gene expression in TGFbeta1 treatment: CBP [1]: 4.53 fold | Individual variation of gene expression in TGFbeta1 treatment: COL1A1 [1]: 8.86 fold | Individual variation of gene expression in TGFbeta1 treatment: COL1A2 [1]: 8.44 fold | Individual variation of gene expression in TGFbeta1 treatment: COL3A1 [1]: 8.57 fold | Individual variation of gene expression in TGFbeta1 treatment: COL4A1 [1]: 13.7 fold | Individual variation of gene expression in TGFbeta1 treatment: COL5A1 [1]: 7.69 fold | Individual variation of gene expression in TGFbeta1 treatment: COL5A2 [1]: 2.12 fold | Individual variation of gene expression in TGFbeta1 treatment: CTGF [1]: 12.8 fold | Individual variation of gene expression in TGFbeta1 treatment: ELN [1]: 13.96 fold | Individual variation of gene expression in TGFbeta1 treatment: FN 1 transcr.v.1 [1]: 6.98 fold | Individual variation of gene expression in TGFbeta1 treatment: MMP1, collagenase 1 [1]: 7.02 fold | Individual variation of gene expression in TGFbeta1 treatment: MMP2 gelatinase [1]: 4.77 fold | Individual variation of gene expression in TGFbeta1 treatment: MMP3 stromelysin [1]: 5.8 fold | Individual variation of gene expression in TGFbeta1 treatment: MMP7 [1]: 32.8 fold | Individual variation of gene expression in TGFbeta1 treatment: MMP10, stromelysin 2 [1]: 45.93 fold | Individual variation of gene expression in TGFbeta1 treatment: NCOA1 [1]: 5.64 fold | Individual variation of gene expression in TGFbeta1 treatment: NCOA2 [1]: 1.58 fold | Individual variation of gene expression in TGFbeta1 treatment: NCOA3 [1]: 6.21 fold | Individual variation of gene expression in TGFbeta1 treatment: NCOA5 [1]: 4.56 fold | Individual variation of gene expression in TGFbeta1 treatment: NCOA6 [1]: 2.82 fold | Individual variation of gene expression in TGFbeta1 treatment: NCOR1 [1]: 7.31 fold | Individual variation of gene expression in TGFbeta1 treatment: PPARG [1]: 17.71 fold | Individual variation of gene expression in TGFbeta1 treatment: TIMP1 [1]: 5.73 fold | MMP1, collagenase 1 expression in TGFbeta1 treatment compared to control, from-to between individuals [1]: (from −5.05 to 1.97) fold | MMP2 gelatinase expression in TGFbeta1 treatment compared to control, from-to between individuals [1]: (from −2.51 to 2.26) fold | MMP3 stromelysin expression in TGFbeta1 treatment compared to control, from-to between individuals [1]: (from −3.22 to 2.58) fold | MMP7 expression in TGFbeta1 treatment compared to control, from-to between individuals [1]: (from −29.96 to 2.84) fold | MMP10, stromelysin 2 expression in TGFbeta1 treatment compared to control, from-to between individuals [1]: (from −5.0 to 40.93) fold | NCOA1 expression in TGFbeta1 treatment compared to control, from-to between individuals [1]: (from −2.76 to 2.88) fold | NCOA2 expression in TGFbeta1 treatment compared to control, from-to between individuals [1]: (from −2.54 to −0.96) fold | NCOA3 expression in TGFbeta1 treatment compared to control, from-to between individuals [1]: (from −4.81 to 1.4) fold | NCOA5 expression in TGFbeta1 treatment compared to control, from-to between individuals [1]: (from −3.13 to 1.43) fold | NCOA6 expression in TGFbeta1 treatment compared to control, from-to between individuals [1]: (from 1.64 to 1.18) fold | NCOR1 expression in TGFbeta1 treatment compared to control, from-to between individuals [1]: (from −2.54 to 4.77) fold | PPARG expression in TGFbeta1 treatment compared to control, from-to between individuals [1]: (from −16.51 to 1.2) fold | TIMP1 expression in TGFbeta1 treatment compared to control, from-to between individuals [1]: (from −2.45 to 3.28) fold
